Test results published in patent USRE47193E1, “Selectively substituted quinoline compounds” (EISAI R&D MANAGEMENT CO., LTD., priority 2013, dated 2019).

Target: T1, mouse TLR7 (Mus musculus, UniProt P58681)
T1 sequence (P58681 27-1050): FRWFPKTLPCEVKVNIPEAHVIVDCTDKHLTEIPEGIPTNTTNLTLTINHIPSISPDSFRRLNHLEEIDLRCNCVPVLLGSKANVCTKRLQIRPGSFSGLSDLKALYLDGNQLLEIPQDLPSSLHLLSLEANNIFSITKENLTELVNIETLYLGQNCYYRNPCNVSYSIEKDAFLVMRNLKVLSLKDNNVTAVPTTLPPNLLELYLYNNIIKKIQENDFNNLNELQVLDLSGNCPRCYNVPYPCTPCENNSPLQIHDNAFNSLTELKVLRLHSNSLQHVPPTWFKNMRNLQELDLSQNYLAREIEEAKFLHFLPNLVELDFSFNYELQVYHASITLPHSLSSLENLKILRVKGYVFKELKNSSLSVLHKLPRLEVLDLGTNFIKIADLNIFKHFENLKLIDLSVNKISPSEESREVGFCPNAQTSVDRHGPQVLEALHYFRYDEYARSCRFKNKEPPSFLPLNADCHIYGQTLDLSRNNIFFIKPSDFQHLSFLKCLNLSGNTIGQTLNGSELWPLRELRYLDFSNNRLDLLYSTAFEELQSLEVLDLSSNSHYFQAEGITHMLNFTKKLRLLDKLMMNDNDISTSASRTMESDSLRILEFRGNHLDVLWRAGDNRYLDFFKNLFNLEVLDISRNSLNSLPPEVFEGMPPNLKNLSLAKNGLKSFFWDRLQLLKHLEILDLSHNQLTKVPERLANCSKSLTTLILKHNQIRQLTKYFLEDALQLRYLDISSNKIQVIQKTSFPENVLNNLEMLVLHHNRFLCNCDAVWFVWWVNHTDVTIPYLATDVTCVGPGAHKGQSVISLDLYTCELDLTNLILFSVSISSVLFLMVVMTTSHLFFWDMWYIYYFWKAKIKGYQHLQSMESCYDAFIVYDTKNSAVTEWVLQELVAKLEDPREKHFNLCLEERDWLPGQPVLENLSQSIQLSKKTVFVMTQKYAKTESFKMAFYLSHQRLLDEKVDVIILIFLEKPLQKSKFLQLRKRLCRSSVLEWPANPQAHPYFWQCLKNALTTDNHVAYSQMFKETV
Assay: Short-term in vivo (STIV) assay: oral dosing, R848 s.c., plasma IL-6
Set-up: female BALB/c mice (Jackson Labs, Bar Harbor, Me.) were dosed by oral gavage; tissue Jackson Labs; host or cells: living female BALB/c mice; plasma IL-6 after s.c. R848
Conditions: for short-term in vivo suppression of the TLR7 pathway (plasma IL-6): 33, 100 or 300 mg/kg oral, 6, 13 or 24 hours, FIG. 1
Procedure, shortened: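 Female BALB/c mice (6–8 weeks) dosed orally with compound in 0.5% aqueous methyl-cellulose at 33, 100 or 300 mg/kg; at various times afterwards given 15 ug R848 s.c. to stimulate TLR7. Plasma IL-6 measured by ELISA to gauge potency and duration of action.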

| SMILES | % Suppression vs. Vehicle (3 h, 33 mg/kg) | % Suppression vs. Vehicle (6 h, 33 mg/kg) | % Suppression vs. Vehicle (6 h, 100 mg/kg) | % Suppression vs. Vehicle (6 h, 300 mg/kg) | % Suppression vs. Vehicle (13 h, 33 mg/kg) | % Suppression vs. Vehicle (13 h, 100 mg/kg) | % Suppression vs. Vehicle (13 h, 300 mg/kg) | % Suppression vs. Vehicle (19 h, 33 mg/kg) | % Suppression vs. Vehicle (24 h, 100 mg/kg) | % Suppression vs. Vehicle (24 h, 300 mg/kg) | short-term in vivo suppression of the TLR7 pathway (plasma IL-6) | duration of full suppression of the R848/TLR7/IL-6 pathway in vivo (single oral dose 300 mg/kg) |
| --- | --- | --- | --- | --- | --- | --- | --- | --- | --- | --- | --- | --- |
| CC[C@H]1CN(C[C@H]2CN(c3ccc(C#N)c4ncccc34)C[C@@H](C)O2)CCN1 [ER-890963] | 90% | 98% | 99% | 100% | 31% | 80% | 100% | 45% | 50% | 100% |  |  |
| C[C@@H]1CN(c2ccc(C#N)c3ncccc23)C[C@H](C(=O)NC2CCN(C)CC2)O1 [ER-899464, (2R,6R)-4-(8-cyanoquinolin-5-yl)-6-methyl-N-(1-methylpiperidin-4-yl)morpholine-2-carboxamide] |  |  | 99% |  |  | 96% |  |  |  |  | suppression of the TLR7 pathway |  |
| C[C@@H]1CN(c2ccc(C#N)c3ncccc23)C[C@H](C(=O)N[C@H]2CNC[C@H]2F)O1.Cl [ER-899742, (2R,6R)-4-(8-cyanoquinolin-5-yl)-N-[(3S,4R)-4-fluoropyrrolidin-3-yl]-6-methylmorpholine-2-carboxamide hydrochloride] |  |  | 100% |  |  | 61% |  |  |  |  | suppression of the TLR7 pathway | at least 24 hours |
